Laboratory results reported in publication PMC7932555, “A diffusible signal factor of the intestine dictates Salmonella invasion through its direct control of the virulence activator HilD” (PLoS Pathogens, 2021).

System: sipB::lacZY
Assay: sipB::lacZY reporter β-galactosidase assay in strains expressing wild type or mutant HilD
Assay type: cell-based
Conditions: 20 μM fatty acid (mix: 20 μM of each)
Description: To test the effect of mutations in hilD, we initially constructed a background Salmonella strain without chromosomal hilC, rtsA and hilD and fused sipB to lacZY to assess SPI-1 expression. hilD with a C-terminal 3XFLAG tag was cloned into pWSK29 under control of the tetRA promoter for tetracycline-inducible expression. This plasmid was subjected to site-directed mutagenesis at specific nucleotides to change selected amino acids to alanine, using the Agilent QuikChange II Site-Directed Mutagenesis kit following their protocol. Mutations were confirmed by DNA sequencing.
Salmonella strains were inoculated into LB buffered with 100 mM MOPS [3-(N-morpholino) propanesulphonic acid] pH 6.7, with necessary antibiotics, and fatty acids or control solvents to be tested. Cultures were incubated at 37° C without aeration overnight, and assays were performed using an established protocol.

[1] = strain expressing wild type HilD

## CCCCCCCCC/C=C\C(=O)O [c2-DDA, cis-2-dodecenoic acid]
Strain expressing HilD K293A
  repression of sipB expression: no significant reduction
Strain expressing HilD K294A
  repression of sipB expression: no significant reduction
[1]
  repression of sipB expression: 4.1 fold

## CCCCCCCCCCC/C=C\CCCCCCC(=O)O [c8-EA, cis-8-eicosenoic acid]
Strain expressing HilD K293A
  repression of sipB expression: continued to repress sipB expression
Strain expressing HilD K294A
  repression of sipB expression: continued to repress sipB expression

## CCCCCCCC/C=C\CCCCCCCC(=O)O [oleic acid, cis-9-octadecenoic acid]
Strain expressing HilD K43A
  repression of sipB expression: no longer had a repressive effect
Strain expressing HilD K293A
  repression of sipB expression: continued to repress sipB expression
Strain expressing HilD K294A
  repression of sipB expression: continued to repress sipB expression
Strain expressing HilD Q290A
  repression of sipB expression: no longer had a repressive effect
[1]
  repression of sipB expression: 3.7 fold
